The values below come from US7625889B2, “Substituted bis aryl and heteroaryl compounds as selective 5HT2A antagonists” (Aventis Pharmaceuticals Inc., priority 2005, dated 2009).

In one test the target is T1, 5HT2A receptor site (Mus musculus, UniProt P35363).
T1 construct: from tissue; host or cells: live male mice (whole animal)
The test is described as follows: Head Twitch Assay (5-MeODMT induced head twitch). The test is classed as in vivo. Particulars: for ED50: mouse, sc, dose blocking 5-MeODMT (30 mg/kg i.p.) head twitch in 50% of male mice; for % effect @ 3 mg/kg: 3 mg/kg sc. On the procedure: This Example 177 illustrates the study of efficacy of the compounds of this invention at the 5HT2A receptor site in animal models.
5-MeODMT (5-Methoxy-N,N-dimethyltryptamine) Inhibition: Groups of male mice are administered test compounds at selected doses. At an appropriate interval thereafter, 5-MeODMT (dissolved in 0.5% ascorbic acid) is administered at a dose of 30 mg/kg i.p. Immediately after administration of 5-MeODMT, and continuing for the following 6 min, the number of head twitches for each animal is counted. […] The ED50 is calculated as the dose necessary to block head twitch in 50% of the test animals. All experiments are performed with at least 10 animals per condition.

A further test deals with T2, human 5HT2A receptor (Homo sapiens, UniProt P28223).
T2 construct: expressed in transfected cells
T2 sequence (P28223 whole entry): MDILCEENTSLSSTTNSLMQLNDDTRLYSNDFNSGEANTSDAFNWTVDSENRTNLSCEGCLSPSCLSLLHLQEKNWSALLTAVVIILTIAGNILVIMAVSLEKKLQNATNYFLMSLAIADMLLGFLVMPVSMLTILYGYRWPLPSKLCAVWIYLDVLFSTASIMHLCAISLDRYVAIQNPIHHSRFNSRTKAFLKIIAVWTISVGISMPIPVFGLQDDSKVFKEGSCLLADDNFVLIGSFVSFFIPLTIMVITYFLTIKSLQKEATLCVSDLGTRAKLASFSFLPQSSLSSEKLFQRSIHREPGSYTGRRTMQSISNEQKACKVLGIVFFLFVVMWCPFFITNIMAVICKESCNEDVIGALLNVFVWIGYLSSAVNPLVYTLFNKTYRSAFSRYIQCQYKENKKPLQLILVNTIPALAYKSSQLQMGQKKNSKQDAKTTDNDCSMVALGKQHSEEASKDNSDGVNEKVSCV
The test is described as follows: Receptor Binding Assay, 5HT2A ([3H]N-methyl spiperone). The settings on record: BHK cells expressing human 5HT2A receptor, 2.5 nM [3H]N-methyl spiperone, 37° C. The procedure: Cell Culture: BHK cells stably expressing the human 5HT2A receptor were maintained in Dulbecco's Modified Eagle's Medium supplemented with […] Geneticin, 1% Sodium Pyruvate, 1% Pen-Strep and 10% Fetal Calf Serum, and treated with 5 mM sodium butyrate for 24 h to increase receptor expression before harvesting. Cells were harvested by mechanical scraping, washed with Phosphate Buffered Saline, and stored at −80° C. in 10% DMSO in 1 mg/mil aliquots until used. Protein determination was made according to Lowry.
Receptor Binding Assays: The 5HT2A and D2L assays were conducted at 37° C. in a Tris buffer containing salts (50 mM Tris Buffer, pH 7.7; 120 mM NaCl; 5 mM KCl; 2 mM CaCl2; 1 mM MgCl2). Cell membranes (previously prepared and frozen) were rapidly thawed. Membranes were diluted to an appropriate concentration (to produce 100 μg protein/assay point for 5HT2A, and 58 μg protein/assay point for D2L) in Tris buffer and homogenized. Assays were conducted on 96-well plates, using 2.5 and 1 nM [^3H]N-methyl spiperone as radioligand for 5HT2A and D2L assays, respectively. Plates were incubated at 37° C. in a shaking water bath for 30 and 60 min, for 5HT2A and D2L, respectively. Nonspecific binding was defined using 100 μM methylsergide and eticlopride, for 5HT2A and D2L, respectively.
Assays were terminated by rapid filtration through Millipore MAFB or MAFC (5HT2C) filter plates (presoaked in 50 mM Tris HCl, pH 7.7, with 0.1% Brij) using a Millipore Cell Harvester. The filter plates were then washed with ice-cold 50 mM Tris buffer, pH 7.7, and allowed to dry overnight. 50 μl of Microscint scintillation cocktail were added and the plates were counted in a Packard Topcount scintillation counter.
IC50 and Ki calculations were performed using nonlinear regression one-site competition analysis (GraphPad, Prism), with top and bottom limits held constant at 0% and 100% inhibition, respectively. The percent inhibition at each drug concentration was the average of duplicate determinations. Except where indicated, each determination was performed 2 to 5 times.

Structures are written as SMILES. Bounds are passed on as bounds.

T1 sequence (P35363 whole entry): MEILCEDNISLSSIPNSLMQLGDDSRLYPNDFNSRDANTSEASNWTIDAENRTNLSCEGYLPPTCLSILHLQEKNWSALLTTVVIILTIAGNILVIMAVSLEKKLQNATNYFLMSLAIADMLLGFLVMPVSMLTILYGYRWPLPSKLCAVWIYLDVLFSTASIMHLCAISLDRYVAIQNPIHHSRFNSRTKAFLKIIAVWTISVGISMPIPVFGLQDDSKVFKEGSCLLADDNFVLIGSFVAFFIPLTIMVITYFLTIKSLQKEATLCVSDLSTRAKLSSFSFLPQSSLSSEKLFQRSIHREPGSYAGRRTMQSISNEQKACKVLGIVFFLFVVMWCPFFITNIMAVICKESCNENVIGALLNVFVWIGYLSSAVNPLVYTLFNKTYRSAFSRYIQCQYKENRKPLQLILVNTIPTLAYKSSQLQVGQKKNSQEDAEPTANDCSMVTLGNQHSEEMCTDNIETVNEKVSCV

The ED50 is the dose that gives a 50% effect, or the effect in half of the subjects. Usually Ki stands for the equilibrium dissociation constant of an inhibitor or competing ligand from its target. A low value points to higher affinity. As for `CN(C)CCN(Cc1ccccc1)Cc1cccc(-c2ccc3[nH]c(=O)oc3c2)c1.Cl` [Example 3], on 5HT2A receptor site (1 mg/kg sc, head twitch, male mice), the “% effect @ 1 mg/kg” value came to 100%. This compound also had an ED50 on 5HT2A receptor site below 1 mg/kg. Further, at human 5HT2A receptor, the affinity corresponds to a Ki of 0.9 nM. On 5HT2A receptor site, `O=C(c1ccc(F)cc1)N(CCN1CCCC1)Cc1cc(-c2ccc3[nH]ccc3c2)ccc1F` [Example 20, 4-Fluoro-N-[2-fluoro-5-(1H-indol-5-yl)-benzyl]-N-(2-pyrrolidin-1-yl-ethyl)-benzamide] had a median effective dose (ED50) of 0.27 mg/kg. The compound further gave an inhibition constant (Ki) on human 5HT2A receptor of 0.32 nM. Take `O=C(c1ccc(F)cc1)N(CCN1CCCC1)Cc1cc(-c2ccc3[nH]c(=O)oc3c2)ccc1F` [Example 21]: the “% effect @ 3 mg/kg” value at 5HT2A receptor site (head twitch, male mice) is reported as 60%. The ED50 at 5HT2A receptor site was below 3 mg/kg. At human 5HT2A receptor, this compound registered a Ki of 0.26 nM.

On 5HT2A receptor site, `Cc1cc2cc(-c3ccc(F)c(CN(CCN(C)C)C(=O)c4ccc(F)cc4)c3)ccc2[nH]1` [Example 23] had an ED50 of 0.16 mg/kg. For the same compound, the Ki at human 5HT2A receptor is 0.37 nM. With `CN(C)CCN(Cc1cc(-c2ccc3[nH]ccc3c2)ccc1F)C(=O)c1ccc(F)cc1` [Example 26], the 50% effect level at 5HT2A receptor site (ED50) was put at a dose of 0.82 mg/kg. The compound also returned a Ki at human 5HT2A receptor of 0.68 nM. On the same counts, the results for `CN1CCC(N(Cc2cccc(-c3ccc4[nH]ccc4c3)c2)C(=O)c2ccc(F)cc2)CC1` [Example 27] are 0.59 mg/kg and 0.7 nM.

On to `CN1CCC(N(Cc2cc(-c3ccc4[nH]ccc4c3)ccc2F)C(=O)c2ccc(F)cc2)CC1` [Example 34], for which the ED50 on 5HT2A receptor site was 1.09 mg/kg. For the same compound, at human 5HT2A receptor, affinity was put at a Ki of 1.25 nM. The compound `Fc1ccc([C@H]2CNCCN2Cc2cc(-c3ccc4[nH]ncc4c3)ccc2F)cc1` [Example 42, {4-Fluoro-3-[2S-(4-fluoro-phenyl)-piperazin-1-ylmethyl]-phenyl}-1H-indazole] showed an ED50 at 5HT2A receptor site of 1.73 mg/kg. At human 5HT2A receptor, this compound displayed a Ki of 0.61 nM. For `CC(=O)O.Fc1ccc(-c2ccc3[nH]ncc3c2)cc1CN1CCNC[C@@H]1c1cccs1` [Example 44], on 5HT2A receptor site, the ED50 was found to be 0.54 mg/kg. With `Fc1ccc(-c2ccc3[nH]ncc3c2)cc1CN1CCNCC1c1cccs1` (stereo not shown) [Example 47], on 5HT2A receptor site (head twitch, male mice), the “% effect @ 3 mg/kg” value is on record as 50%. The compound also gave an ED50 on 5HT2A receptor site of around 3 mg/kg. Also, the Ki on human 5HT2A receptor came to 1.24 nM. For the compound `CC(=O)O.CN1CCN(Cc2cncc(-c3ccc4[nH]ccc4c3)c2)[C@@H](c2ccc(F)cc2)C1` [Example 91, 5-{5-[2S-(4-Fluoro-phenyl)-4-methyl-piperazin-1-ylmethyl]-pyridin-3-yl}-1H-indole acetate], at 5HT2A receptor site, the ED50 was 0.41 mg/kg. Further, the affinity at human 5HT2A receptor corresponds to a Ki of 0.6 nM. Consider `CN1CCN(Cc2cc(-c3ccc4[nH]ccc4c3)ccc2F)[C@@H](c2ccc(F)cc2)C1` [Example 92, 5-{4-Fluoro-3-[2S-(4-fluoro-phenyl)-4-methyl-piperazin-1-ylmethyl]-phenyl}-1H-indole], for which, on 5HT2A receptor site, the median effective dose (ED50) amounted to 0.53 mg/kg. With `CN1CCN(Cc2cc(-c3ccc4[nH]ccc4c3)co2)[C@@H](c2ccc(F)cc2)C1.O=C(O)C(F)(F)F` [Example 94, 5-{5-[2S-(4-Fluoro-phenyl)-4-methyl-piperazin-1-ylmethyl]-furan-3-yl}-1H-indole; compound with trifluoro-acetate], the “% effect @ 3 mg/kg” value at 5HT2A receptor site (head twitch, male mice) is listed as 50%. In addition, at 5HT2A receptor site, the ED50 is around 3 mg/kg. Consider `CC(=O)O.CN1CCN(Cc2cc(-c3ccc4[nH]c(=O)oc4c3)co2)[C@@H](c2ccc(F)cc2)C1` [Example 95, 6-{5-[2S-(4-Fluorophenyl)-4-methylpiperazine-1-ylmethyl]-furan-3-yl}-3H-benzoxazol-2-one], for which the median effective dose (ED50) on 5HT2A receptor site was 0.5 mg/kg. The affinity at human 5HT2A receptor corresponds to a Ki of 1.9 nM. Turning to `Fc1ccc([C@H]2CNCCN2Cc2cc(-c3ccc4[nH]ccc4c3)co2)cc1` [Example 115, 5-{5-[2S-(4-Fluoro-phenyl)-piperazin-1-ylmethyl]-furan-3-yl}-1H-indole], on human 5HT2A receptor, the Ki came out at 2.88 nM. In turn, `Fc1ccc([C@H]2CNCCN2Cc2cc(-c3ccc4[nH]ncc4c3)co2)cc1` [Example 116, 5-{5-[2S-(4-Fluoro-phenyl)-piperazin-1-ylmethyl]furan-3-yl}-1H-indazole] registered a Ki at human 5HT2A receptor of 1.79 nM. For `O=c1[nH]c2ccc(-c3coc(CN4CCNC[C@@H]4c4ccc(F)cc4)c3)cc2o1` [Example 117, 6-{5-[2S-(4-Fluoro-phenyl)-piperazin-1-ylmethyl]-furan-3-yl}-3H-benzooxazol-2-one acetate], the affinity at human 5HT2A receptor, expressed as Ki, was 4.79 nM. Same read-out and setting: with `CN1CCC(N(Cc2ccc(F)cc2)Cc2cc(-c3ccc4[nH]c(=O)oc4c3)co2)CC1` [Example 118, 6-(5-{[(4-Fluoro-benzyl)-(1-methyl-piperidin-4-yl)-amino]-methyl}-furan-3-yl)-3H-benzooxazol-2-one] the figure was 1.1 nM; with `CN1CCC(N(Cc2ccc(F)cc2)Cc2cc(-c3ccc4[nH]ncc4c3)co2)CC1` [Example 119, (4-Fluoro-benzyl)-[4-(1H-indazol-5-yl)-furan-2-ylmethyl]-(1-methyl-piperidin-4-yl)-amine], 0.78 nM; with `CN1CCN(Cc2cccc(-c3ccc4[nH]ccc4c3)c2)CC1` [Example 120, 5-[3-(4-Methyl-piperazin-1-ylmethyl)-phenyl]-1H-indole], 65 nM.

In turn, `CN1CCCN(Cc2cccc(-c3ccc4[nH]ccc4c3)c2)CC1` [Example 121, 5-[3-(4-Methyl-[1,4]diazepan-1-ylmethyl)-phenyl]-1H-indole] displayed a Ki at human 5HT2A receptor of 82 nM. Compound `O=C(c1ccc(F)cc1)N(CCN1CCCC1)Cc1cc(F)cc(-c2ccc3[nH]ccc3c2)c1` [Example 133, 4-Fluoro-N-[3-fluoro-5-(1H-indol-5-yl)-benzyl]-N-(2-pyrrolidin-1-yl-ethyl)-benzamide] had an ED50 at 5HT2A receptor site of 0.92 mg/kg. Consider `CN(C)CCN(Cc1ccc(F)cc1)Cc1cc(-c2ccc3[nH]cc(C#N)c3c2)ccc1F` [Example 140, 5-(3-{[(2-Dimethylamino-ethyl)-(4-fluoro-benzyl)-amino]-methyl}-4-fluoro-phenyl)-1H-indole-3-carbonitrile trifluoro-acetate], for which the Ki at human 5HT2A receptor came out at 22.6 nM. In turn, `CC(=O)O.CN1CCN(Cc2cc(-c3ccc4[nH]ncc4c3)ccc2F)[C@@H](c2cccs2)C1` [Example 159, 5-[4-Fluoro-3-(4-methyl-2R-thiophen-2-yl-piperazin-1-ylmethyl)-phenyl]-1H-indazole acetate] came in with an ED50 on 5HT2A receptor site of 0.04 mg/kg. As to `CN1CCN(Cc2cc(-c3ccc4[nH]ncc4c3)co2)[C@@H](c2ccc(F)cc2)C1` [Example 161, 5-{5-[2S-(4-Fluoro-phenyl)-4-methyl-piperazin-1-ylmethyl]-furan-3-yl}-1H-indazole], the ED50 at 5HT2A receptor site turned out to be 0.16 mg/kg. With `CN1CCN(C(=O)c2cc(-c3ccc4[nH]ccc4c3)ccc2F)[C@@H](c2ccc(F)cc2)C1` [Example 171, [2-Fluoro-5-(1H-indol-5-yl)-phenyl]-[2S-(4-fluoro-phenyl)-4-methyl-piperazin-1-yl]-methanone], on human 5HT2A receptor, the Ki was determined as 85 nM. In the case of `Fc1ccc([C@H]2CNCCN2Cc2cc(-c3ccc4[nH]ccc4c3)ccc2F)cc1` [Example 174, 5-{4-Fluoro-3-[2S-(4-fluoro-phenyl)-piperazin-1-ylmethyl]-phenyl}-1H-indole acetate], the Ki on human 5HT2A receptor was 0.9 nM. On to `CN1CCN(Cc2cc(-c3ccc4[nH]cc(C#N)c4c3)ccc2F)[C@@H](c2ccc(F)cc2)C1` [Example 175, 5-{4-Fluoro-3-[2S-(4-fluoro-phenyl)-4-methyl-piperazin-1-ylmethyl]-phenyl}-1H-indole-3-carbonitrile], for which the affinity on human 5HT2A receptor corresponds to a Ki of 3.2 nM.
